# Assay results taken from publication PMC5218480 (PLoS ONE, 2017).
# System: MV-4-11 cells
# Assay: Gene expression microarray analysis (Affymetrix PrimeView) and GSEA
# Assay type: cell-based, human
# Parameters: RFU PODN (11730768_x_at) / Fold change /veh PODN (11730768_x_at) / RFU LINC00158 (11744669_a_at) / Fold change /veh LINC00158 (11744669_a_at) / RFU DUSP10 (11751237_a_at) / Fold change /veh DUSP10 (11751237_a_at) / RFU ID3 (11757404_x_at) / Fold change /veh ID3 (11757404_x_at) / RFU PLEKHG5 (11737974_s_at) / Fold change /veh PLEKHG5 (11737974_s_at) / RFU LRRC4B (11730491_at) / Fold change /veh LRRC4B (11730491_at) / RFU GIMAP4 (11747438_a_at) / Fold change /veh GIMAP4 (11747438_a_at) / RFU KRT8 (11758183_x_at) / Fold change /veh KRT8 (11758183_x_at) / RFU CNN1 (11734310_a_at) / Fold change /veh CNN1 (11734310_a_at) / RFU VPS37D (11726825_at) / Fold change /veh VPS37D (11726825_at) / RFU C10orf10 (11716522_x_at) / Fold change /veh C10orf10 (11716522_x_at) / RFU KIR2DL2 /// KIR2DL4 /// KIR2DL5A /// KIR2DL5B /// KIR2DS1 /// KIR2DS2 /// KIR2DS3 /// KIR2DS4 /// KIR3DL3 /// KIR3DL3 /// KIR3DS1 (11738374_at) / Fold change /veh KIR2DL2 /// KIR2DL4 /// KIR2DL5A /// KIR2DL5B /// KIR2DS1 /// KIR2DS2 /// KIR2DS3 /// KIR2DS4 /// KIR3DL3 /// KIR3DL3 /// KIR3DS1 (11738374_at) / RFU C1QL1 (11718748_at) / Fold change /veh C1QL1 (11718748_at) / RFU TMPRSS4 (11747572_a_at) / Fold change /veh TMPRSS4 (11747572_a_at) / RFU HAMP (11756126_x_at) / Fold change /veh HAMP (11756126_x_at) / RFU RNFT2 (11725882_a_at) / Fold change /veh RNFT2 (11725882_a_at) / RFU NR4A2 (11747474_a_at) / Fold change /veh NR4A2 (11747474_a_at) / RFU ABCC12 (11746883_a_at) / Fold change /veh ABCC12 (11746883_a_at) / RFU TMEM136 (11760407_x_at) / Fold change /veh TMEM136 (11760407_x_at) / RFU CLDN22 /// WWC2 (11732394_at) / Fold change /veh CLDN22 /// WWC2 (11732394_at) / RFU HLA-DPB1 (11760878_x_at) / Fold change /veh HLA-DPB1 (11760878_x_at) / RFU SPINT1 (11716480_a_at) / Fold change /veh SPINT1 (11716480_a_at) / RFU GAP43 (11754022_s_at) / Fold change /veh GAP43 (11754022_s_at) / RFU A4GNT (11735810_at) / Fold change /veh A4GNT (11735810_at) / RFU PRB3 (11715151_x_at) / Fold change /veh PRB3 (11715151_x_at) / RFU TUBB4B (11761932_at) / Fold change /veh TUBB4B (11761932_at) / RFU CAPN14 (11732068_a_at) / Fold change /veh CAPN14 (11732068_a_at) / RFU TMCC2 (11721928_a_at) / Fold change /veh TMCC2 (11721928_a_at) / RFU IRGQ (11745062_a_at) / Fold change /veh IRGQ (11745062_a_at) / RFU FAM174B (11720279_a_at) / Fold change /veh FAM174B (11720279_a_at) / RFU TMPRSS4 (11748680_a_at) / Fold change /veh TMPRSS4 (11748680_a_at) / RFU FAM212B (11763350_a_at) / Fold change /veh FAM212B (11763350_a_at) / RFU PLEKHG5 (11743358_a_at) / Fold change /veh PLEKHG5 (11743358_a_at) / RFU ZSCAN30 (11745921_a_at) / Fold change /veh ZSCAN30 (11745921_a_at) / RFU CMKLR1 (11741424_a_at) / Fold change /veh CMKLR1 (11741424_a_at) / RFU LOC101060620 /// MAPK8IP1 (11723275_at) / Fold change /veh LOC101060620 /// MAPK8IP1 (11723275_at) / RFU SPTSSB (11747773_x_at) / Fold change /veh SPTSSB (11747773_x_at) / RFU PRSS12 (11739890_at) / Fold change /veh PRSS12 (11739890_at) / RFU BIN1 (11741810_x_at) / Fold change /veh BIN1 (11741810_x_at) / RFU WNT11 (11732464_a_at) / Fold change /veh WNT11 (11732464_a_at) / RFU C10orf10 (11716521_a_at) / Fold change /veh C10orf10 (11716521_a_at) / RFU C5orf56 (11738089_at) / Fold change /veh C5orf56 (11738089_at) / RFU CYB561 (11721691_x_at) / Fold change /veh CYB561 (11721691_x_at) / RFU ANKRD19P (11752326_a_at) / Fold change /veh ANKRD19P (11752326_a_at) / RFU OR2T12 /// OR2T33 /// OR2T8 (11738714_s_at) / Fold change /veh OR2T12 /// OR2T33 /// OR2T8 (11738714_s_at) / RFU VCAN (11748164_a_at) / Fold change /veh VCAN (11748164_a_at) / RFU JSRP1 (11732532_at) / Fold change /veh JSRP1 (11732532_at) / RFU KRTAP10-11 (11738290_x_at) / Fold change /veh KRTAP10-11 (11738290_x_at) / RFU MYO3A (11730013_a_at) / Fold change /veh MYO3A (11730013_a_at) / RFU EBF3 (11725865_a_at) / Fold change /veh EBF3 (11725865_a_at) / RFU CAMK2N1 (11719241_x_at) / Fold change /veh CAMK2N1 (11719241_x_at) / RFU C5orf56 (11738088_a_at) / Fold change /veh C5orf56 (11738088_a_at) / RFU OLFML3 (11715873_a_at) / Fold change /veh OLFML3 (11715873_a_at) / RFU LOC100653217 /// NTM (11731650_a_at) / Fold change /veh LOC100653217 /// NTM (11731650_a_at) / RFU MAPK11 (11762145_a_at) / Fold change /veh MAPK11 (11762145_a_at) / RFU FIZ1 (11724087_x_at) / Fold change /veh FIZ1 (11724087_x_at) / RFU OASL (11726364_x_at) / Fold change /veh OASL (11726364_x_at) / RFU SOX15 (11748057_x_at) / Fold change /veh SOX15 (11748057_x_at) / RFU CD79A (11719716_a_at) / Fold change /veh CD79A (11719716_a_at) / RFU HIST1H1D (11736915_at) / Fold change /veh HIST1H1D (11736915_at) / RFU CASKIN2 (11723855_a_at) / Fold change /veh CASKIN2 (11723855_a_at) / RFU LOC730098 (11760151_x_at) / Fold change /veh LOC730098 (11760151_x_at) / RFU OR4N2 (11742367_at) / Fold change /veh OR4N2 (11742367_at) / RFU PRRT2 (11749266_a_at) / Fold change /veh PRRT2 (11749266_a_at) / RFU SNX32 (11753110_a_at) / Fold change /veh SNX32 (11753110_a_at) / RFU CDHR5 (11726645_a_at) / Fold change /veh CDHR5 (11726645_a_at) / RFU RCAN1 (11760418_a_at) / Fold change /veh RCAN1 (11760418_a_at) / RFU FAM167A (11723789_a_at) / Fold change /veh FAM167A (11723789_a_at) / RFU FAM26E (11764081_at) / Fold change /veh FAM26E (11764081_at) / RFU ISYNA1 (11749810_s_at) / Fold change /veh ISYNA1 (11749810_s_at) / RFU ACY1 (11761880_at) / Fold change /veh ACY1 (11761880_at) / RFU 11764098_at / Fold change /veh 11764098_at / RFU SAMD14 (11745864_x_at) / Fold change /veh SAMD14 (11745864_x_at) / RFU NPB (11741838_a_at) / Fold change /veh NPB (11741838_a_at) / RFU TMPRSS6 (11731388_a_at) / Fold change /veh TMPRSS6 (11731388_a_at) / RFU KRTAP10-2 (11738614_at) / Fold change /veh KRTAP10-2 (11738614_at) / RFU ARHGAP8 /// PRR5-ARHGAP8 (11727945_x_at) / Fold change /veh ARHGAP8 /// PRR5-ARHGAP8 (11727945_x_at) / RFU KRTAP5-7 /// NADSYN1 (11734609_at) / Fold change /veh KRTAP5-7 /// NADSYN1 (11734609_at) / RFU RASL12 (11751679_a_at) / Fold change /veh RASL12 (11751679_a_at) / RFU CDKN2B (11736163_a_at) / Fold change /veh CDKN2B (11736163_a_at) / RFU PRF1 (11729649_at) / Fold change /veh PRF1 (11729649_at) / RFU, ZNF638 /// ZNF638-IT1 / Fold change vs veh, ZNF638 /// ZNF638-IT1 / RFU, PANK3 / Fold change vs veh, PANK3 / RFU, SH3YL1 / Fold change vs veh, SH3YL1 / RFU, ZEB2 / Fold change vs veh, ZEB2 / RFU, NRIP1 / Fold change vs veh, NRIP1 / RFU, PTTG1IP / Fold change vs veh, PTTG1IP / RFU, CAPN2 / Fold change vs veh, CAPN2 / RFU, MED14 / Fold change vs veh, MED14 / RFU, SNORA58 / Fold change vs veh, SNORA58 / RFU, C1orf63 / Fold change vs veh, C1orf63 / RFU, LRRFIP1 / Fold change vs veh, LRRFIP1 / RFU, NDUFAF7 / Fold change vs veh, NDUFAF7 / RFU, SLC12A2 / Fold change vs veh, SLC12A2 / RFU, IBTK / Fold change vs veh, IBTK / RFU, ESF1 / Fold change vs veh, ESF1 / Fold change vs veh, TMEM50B / RFU, TAOK1 / Fold change vs veh, TAOK1 / RFU, ACBD3 / Fold change vs veh, ACBD3 / RFU, TMA16 / Fold change vs veh, TMA16 / RFU, RWDD3 / Fold change vs veh, RWDD3 / RFU, BCAT1 / Fold change vs veh, BCAT1 / RFU, EDEM3 / Fold change vs veh, EDEM3 / RFU, TMEM33 / Fold change vs veh, TMEM33 / RFU, WDR75 / Fold change vs veh, WDR75 / RFU, AHCTF1 / Fold change vs veh, AHCTF1 / RFU, TFRC / Fold change vs veh, TFRC / RFU, ZDHHC17 / Fold change vs veh, ZDHHC17 / RFU, NOM1 / Fold change vs veh, NOM1 / RFU, ARL8B / Fold change vs veh, ARL8B / RFU, ZBTB11 / Fold change vs veh, ZBTB11 / RFU, TAMM41 / Fold change vs veh, TAMM41 / RFU, KIAA1704 /// LOC100996395 / Fold change vs veh, KIAA1704 /// LOC100996395 / RFU, ING1 / Fold change vs veh, ING1 / RFU, TRMT61B / Fold change vs veh, TRMT61B / RFU, FUBP3 / Fold change vs veh, FUBP3 / RFU, TP53 / Fold change vs veh, TP53 / RFU, TNKS2 / Fold change vs veh, TNKS2 / RFU, ZFP14 / Fold change vs veh, ZFP14 / RFU, ACTR2 / Fold change vs veh, ACTR2 / RFU, PPP3R1 / Fold change vs veh, PPP3R1 / RFU, PIK3R1 / Fold change vs veh, PIK3R1 / RFU, HNRNPA1 / Fold change vs veh, HNRNPA1 / RFU, RNF170 / Fold change vs veh, RNF170 / RFU, ZNF28 / Fold change vs veh, ZNF28 / RFU, RNGTT / Fold change vs veh, RNGTT / RFU, OGT / Fold change vs veh, OGT / RFU, BRD1 / Fold change vs veh, BRD1 / RFU, MARS / Fold change vs veh, MARS / RFU, ZNF655 / Fold change vs veh, ZNF655 / RFU, FAHD1 / Fold change vs veh, FAHD1 / RFU, BDP1 / Fold change vs veh, BDP1 / RFU, LRRCC1 / Fold change vs veh, LRRCC1 / RFU, ARID1A / Fold change vs veh, ARID1A / RFU, ZNF146 / Fold change vs veh, ZNF146 / RFU, ZNF330 / Fold change vs veh, ZNF330 / RFU, GPN3 / Fold change vs veh, GPN3 / RFU, C9orf123 / Fold change vs veh, C9orf123 / RFU, N4BP2L2 / Fold change vs veh, N4BP2L2 / RFU, ARFIP1 / Fold change vs veh, ARFIP1 / RFU, FAM179B / Fold change vs veh, FAM179B / RFU, BCL10 / Fold change vs veh, BCL10 / RFU, UHRF1BP1L / Fold change vs veh, UHRF1BP1L / RFU, BET1 / Fold change vs veh, BET1 / RFU, CNOT2 / Fold change vs veh, CNOT2 / RFU, ZNF268 / Fold change vs veh, ZNF268 / Fold change vs veh, ZNF507 / RFU, DGCR2 / Fold change vs veh, DGCR2 / RFU, WDSUB1 / Fold change vs veh, WDSUB1 / Fold change vs veh, HSP90B1 /// MIR3652 / RFU, ADSS / Fold change vs veh, ADSS / RFU, GK / Fold change vs veh, GK / RFU, ZNF148 / Fold change vs veh, ZNF148 / RFU, TAF9 / Fold change vs veh, TAF9 / RFU, SLC1A5 / Fold change vs veh, SLC1A5 / RFU, SLMO2 / Fold change vs veh, SLMO2 / RFU, ABCC4 / Fold change vs veh, ABCC4 / RFU, LOC101060439 /// RAP1B / Fold change vs veh, LOC101060439 /// RAP1B / RFU, RFX7 / Fold change vs veh, RFX7 / RFU, GTPBP10 / Fold change vs veh, GTPBP10 / RFU, CNEP1R1 / Fold change vs veh, CNEP1R1 / RFU, BIVM-ERCC5 /// ERCC5 / Fold change vs veh, BIVM-ERCC5 /// ERCC5 / RFU, ILF3 / Fold change vs veh, ILF3 / RFU 11762660_at / Fold change /veh 11762660_at / RFU VCAN (11757783_s_at) / Fold change /veh VCAN (11757783_s_at) / RFU DDX43 (11728927_at) / Fold change /veh DDX43 (11728927_at) / RFU KRT8 (11758188_x_at) / Fold change /veh KRT8 (11758188_x_at) / RFU NKD1 (11759106_at) / Fold change /veh NKD1 (11759106_at) / RFU SRD5A1 (11742802_a_at) / Fold change /veh SRD5A1 (11742802_a_at) / RFU TPSAB1 /// TPSB2 (11721975_s_at) / Fold change /veh TPSAB1 /// TPSB2 (11721975_s_at) / RFU GSTM3 (11746129_a_at) / Fold change /veh GSTM3 (11746129_a_at) / RFU IL23R (11737362_x_at) / Fold change /veh IL23R (11737362_x_at) / RFU TMEM51 (11727254_a_at) / Fold change /veh TMEM51 (11727254_a_at) / RFU PIWIL2 (11732686_x_at) / Fold change /veh PIWIL2 (11732686_x_at) / RFU ORM1 (11744905_x_at) / Fold change /veh ORM1 (11744905_x_at) / RFU CCDC152 (11743942_at) / Fold change /veh CCDC152 (11743942_at) / RFU ECM1 (11717891_a_at) / Fold change /veh ECM1 (11717891_a_at) / RFU IL23R (11748794_a_at) / Fold change /veh IL23R (11748794_a_at) / RFU TNFAIP8L3 (11732012_x_at) / Fold change /veh TNFAIP8L3 (11732012_x_at) / RFU MBOAT4 (11741988_at) / Fold change /veh MBOAT4 (11741988_at) / RFU 11764193_at / Fold change /veh 11764193_at / RFU TMEM53 (11763286_at) / Fold change /veh TMEM53 (11763286_at) / RFU MAGEB2 (11727129_at) / Fold change /veh MAGEB2 (11727129_at) / RFU TMEM200A (11744735_a_at) / Fold change /veh TMEM200A (11744735_a_at) / RFU CCDC152 (11751479_a_at) / Fold change /veh CCDC152 (11751479_a_at) / RFU FAM211A (11726209_a_at) / Fold change /veh FAM211A (11726209_a_at) / RFU RGS16 (11746705_a_at) / Fold change /veh RGS16 (11746705_a_at) / RFU VCAN (11755009_s_at) / Fold change /veh VCAN (11755009_s_at) / RFU RHOB (11743442_s_at) / Fold change /veh RHOB (11743442_s_at) / RFU RGS16 (11720943_a_at) / Fold change /veh RGS16 (11720943_a_at) / RFU RGS16 (11720944_at) / Fold change /veh RGS16 (11720944_at) / RFU, VPS4B / Fold change vs veh, VPS4B / RFU, CREB1 / Fold change vs veh, CREB1 / RFU, DNAJC13 / Fold change vs veh, DNAJC13 / RFU, GNAQ / Fold change vs veh, GNAQ / RFU, CDK5R1 / Fold change vs veh, CDK5R1 / RFU, ZRANB3 / Fold change vs veh, ZRANB3 / RFU, CUL4A / Fold change vs veh, CUL4A / RFU, CCNY / Fold change vs veh, CCNY / RFU, UFL1 / Fold change vs veh, UFL1 / RFU, COG3 / Fold change vs veh, COG3 / RFU, DIAPH2 / Fold change vs veh, DIAPH2 / RFU, SKA2 / Fold change vs veh, SKA2 / RFU, AFF3 / Fold change vs veh, AFF3 / RFU, LMF1 / Fold change vs veh, LMF1 / RFU, IPO11 / Fold change vs veh, IPO11 / RFU, DFFB / Fold change vs veh, DFFB / RFU, FOXP1 / Fold change vs veh, FOXP1 / RFU, CARD8 / Fold change vs veh, CARD8 / RFU, STRN3 / Fold change vs veh, STRN3 / RFU, ADK / Fold change vs veh, ADK / RFU, RASSF2 / Fold change vs veh, RASSF2 / RFU, WIPF1 / Fold change vs veh, WIPF1 / RFU, LARP1B / Fold change vs veh, LARP1B / RFU, RASA1 / Fold change vs veh, RASA1 / RFU, RB1 / Fold change vs veh, RB1 / RFU, PPFIA1 / Fold change vs veh, PPFIA1 / RFU, MAT2A / Fold change vs veh, MAT2A / RFU, CCT5 / Fold change vs veh, CCT5 / RFU, WDR92 / Fold change vs veh, WDR92 / RFU, CUX1 / Fold change vs veh, CUX1 / RFU, TTC7A / Fold change vs veh, TTC7A / RFU, TMEM135 / Fold change vs veh, TMEM135 / RFU, DEPTOR / Fold change vs veh, DEPTOR / RFU, CPM / Fold change vs veh, CPM / RFU, DNAJB6 / Fold change vs veh, DNAJB6 / RFU, CACNA2D3 / Fold change vs veh, CACNA2D3 / RFU, DTX4 / Fold change vs veh, DTX4 / RFU, TFCP2 / Fold change vs veh, TFCP2 / RFU, GMCL1 /// GMCL1P1 / Fold change vs veh, GMCL1 /// GMCL1P1 / RFU, AEBP2 / Fold change vs veh, AEBP2 / RFU, SNHG1 /// SNORD22 /// SNORD25 /// SNORD26 /// SNORD27 /// SNORD28 /// SNORD29 /// SNORD31 / Fold change vs veh, SNHG1 /// SNORD22 /// SNORD25 /// SNORD26 /// SNORD27 /// SNORD28 /// SNORD29 /// SNORD31 / Fold change (Aza/veh), C12orf56 (ProbeSet 11735607_a_at) / Fold change (ACY-1035/veh), C12orf56 (ProbeSet 11735607_a_at) / Fold change (Aza/veh), FGFR1OP (ProbeSet 11751329_s_at) / Fold change (ACY-1035/veh), FGFR1OP (ProbeSet 11751329_s_at) / Fold change (Aza/veh), VPS36 (ProbeSet 11739960_a_at) / Fold change (ACY-1035/veh), VPS36 (ProbeSet 11739960_a_at) / RFU SYPL1 (11715823_x_at) / Fold change /veh SYPL1 (11715823_x_at) / RFU IGFBP7 (11715501_s_at) / Fold change /veh IGFBP7 (11715501_s_at) / RFU REEP3 (11722064_at) / Fold change /veh REEP3 (11722064_at) / RFU IGLL1 (11728026_x_at) / Fold change /veh IGLL1 (11728026_x_at): dose or concentration left out as unconfirmed
# Conditions: MV-4-11 cells, 48 hours
compound,measurement,value
Nc1ncn([C@@H]2O[C@H](CO)[C@@H](O)[C@H]2O)c(=O)n1 [azacitidine],RFU TMEM53 (11763286_at),26.80 RFU
